Source: publication PMC10992699, “Comparative structure activity and target exploration of 1,2-diphenylethynes in Haemonchus contortus and Caenorhabditis elegans” (International Journal for Parasitology: Drugs and Drug …, 2024)

Columns and labels:
[1] = target: T1, TRXR-1 (Caenorhabditis elegans, UniProt Q17745); test: Thermal proteome profiling (TPP); format: binding; settings: compound 50 μM, C. elegans lysate, 37-67 °C
T1 construct: from tissue; host or cells: whole-worm lysate of C. elegans N2 (young adults / L4s)
T1 sequence (Q17745 whole entry): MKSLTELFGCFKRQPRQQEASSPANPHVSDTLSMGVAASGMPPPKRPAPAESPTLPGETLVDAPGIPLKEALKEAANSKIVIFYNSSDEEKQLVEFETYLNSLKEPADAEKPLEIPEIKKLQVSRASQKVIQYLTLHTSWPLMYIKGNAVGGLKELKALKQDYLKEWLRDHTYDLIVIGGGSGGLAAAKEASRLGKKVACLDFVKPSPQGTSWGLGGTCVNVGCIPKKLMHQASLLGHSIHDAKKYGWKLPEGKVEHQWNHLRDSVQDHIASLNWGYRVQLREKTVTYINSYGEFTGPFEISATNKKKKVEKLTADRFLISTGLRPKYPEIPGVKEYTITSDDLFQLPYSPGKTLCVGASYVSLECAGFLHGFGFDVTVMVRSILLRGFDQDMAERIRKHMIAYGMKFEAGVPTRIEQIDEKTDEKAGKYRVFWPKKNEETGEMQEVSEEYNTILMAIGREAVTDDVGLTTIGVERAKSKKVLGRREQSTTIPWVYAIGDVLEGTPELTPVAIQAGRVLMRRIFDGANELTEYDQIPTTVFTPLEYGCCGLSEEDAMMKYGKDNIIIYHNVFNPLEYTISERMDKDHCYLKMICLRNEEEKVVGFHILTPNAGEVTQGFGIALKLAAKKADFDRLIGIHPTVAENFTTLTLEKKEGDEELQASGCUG

[2] = tested on: human hepatoma (HepG2) cells; test: HepG2 mitotoxicity (galactose medium, crystal violet staining); format: cell-based; settings: 48 h
Experimental: The mitotoxicity of UMW-9729 and six key derivatives (12, 14, 15, 16, 18 and 25) on human hepatoma (HepG2) cells was evaluated as described previously using an established protocol ([Swiss and Will, 2011]; [Kamalian et al., 2015]; [Śliwka et al., 2016]). Test compounds were serially-diluted (7-points, 2-fold serial dilution, 50 μM top concentration) in DMEM (Thermo Fisher Scientific, USA) with GlutaMax™ supplemented with 25 mM D-galactose, 10 % heat-inactivated FBS, 100 IU/mL of penicillin, 100 μg/mL of streptomycin and 0.25 μg/mL of amphotericin B (denoted DMEM*). Monepantel and moxidectin (prepared in the same manner as the test compounds) were included as reference compounds. M-666 ([…]; [Le et al., 2018]) was used as a positive control; 0.25 % DMSO was used as a negative control. HepG2 cells were seeded into wells of a 96-well plate in 80 μL of DMEM* (at 1 × 10^5 cells per well) and allowed to adhere for 16 h (5 % (v/v) CO2, 37 °C, >90% humidity)prior to incubation with individual compounds, at a final volume of 100 μL. […] Following 48 h of incubation with compounds, cell viability was determined by crystal violet staining ([Śliwka et al., 2016]). The absorbance (595 nm) of treated cells was normalised using the negative-controls to calculate the cell viability. […]

[3] = target: T2, PGP-1 (Caenorhabditis elegans, UniProt P34712); test: Thermal proteome profiling (TPP); format: binding; settings: compound 50 μM, C. elegans lysate, 37-67 °C
T2 construct: from tissue; host or cells: whole-worm lysate of C. elegans N2 (young adults / L4s), NP-40 extract
T2 sequence (P34712 whole entry): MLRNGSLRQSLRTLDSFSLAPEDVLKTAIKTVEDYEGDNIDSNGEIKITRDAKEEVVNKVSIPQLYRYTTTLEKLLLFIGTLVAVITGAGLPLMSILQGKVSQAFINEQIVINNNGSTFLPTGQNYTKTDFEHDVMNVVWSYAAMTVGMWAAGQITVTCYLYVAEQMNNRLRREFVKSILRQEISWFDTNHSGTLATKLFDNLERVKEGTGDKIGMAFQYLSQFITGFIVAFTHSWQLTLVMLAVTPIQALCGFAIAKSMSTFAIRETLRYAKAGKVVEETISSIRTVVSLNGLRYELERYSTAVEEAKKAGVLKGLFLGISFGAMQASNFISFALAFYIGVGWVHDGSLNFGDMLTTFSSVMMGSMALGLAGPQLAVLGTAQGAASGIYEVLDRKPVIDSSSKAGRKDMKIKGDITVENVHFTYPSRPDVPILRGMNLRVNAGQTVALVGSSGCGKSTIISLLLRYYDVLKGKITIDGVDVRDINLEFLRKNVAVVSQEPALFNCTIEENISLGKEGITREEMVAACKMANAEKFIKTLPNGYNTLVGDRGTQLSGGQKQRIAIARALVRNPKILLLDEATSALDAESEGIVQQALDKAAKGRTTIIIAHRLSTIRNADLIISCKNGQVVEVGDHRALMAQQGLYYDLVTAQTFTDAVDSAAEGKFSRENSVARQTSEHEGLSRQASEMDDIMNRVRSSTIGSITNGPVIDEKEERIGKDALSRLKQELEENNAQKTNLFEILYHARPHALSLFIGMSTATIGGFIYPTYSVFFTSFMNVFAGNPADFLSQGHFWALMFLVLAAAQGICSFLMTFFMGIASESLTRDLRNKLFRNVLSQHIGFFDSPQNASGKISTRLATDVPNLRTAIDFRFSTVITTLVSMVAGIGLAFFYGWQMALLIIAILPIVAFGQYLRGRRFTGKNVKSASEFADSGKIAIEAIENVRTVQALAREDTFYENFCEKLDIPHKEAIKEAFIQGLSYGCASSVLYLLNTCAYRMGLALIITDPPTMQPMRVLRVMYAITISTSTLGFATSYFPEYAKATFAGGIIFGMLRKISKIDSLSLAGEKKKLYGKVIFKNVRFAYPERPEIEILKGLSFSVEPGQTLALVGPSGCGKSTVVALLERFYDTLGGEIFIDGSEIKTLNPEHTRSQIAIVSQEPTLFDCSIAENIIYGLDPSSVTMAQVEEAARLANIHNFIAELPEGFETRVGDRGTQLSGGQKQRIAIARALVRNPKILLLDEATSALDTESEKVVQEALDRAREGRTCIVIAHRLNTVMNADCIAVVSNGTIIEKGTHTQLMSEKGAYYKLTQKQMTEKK

[4] = tested on: H. contortus xL3s; test: H. contortus xL3 motility dose-response assay; format: cell-based, Haemonchus contortus
Experimental: Immediately prior to use in assays, H. contortus L3s were exsheathed via exposure to 0.15 % (v/v) sodium hypochlorite for 20 min at 38 °C ([Preston et al., 2015]), achieving an exsheathment rate of 90 %. The larvae were then immediately washed five times with 50 mL of sterile physiological saline (pH 7.0) by centrifugation at 2000×g (5 min) and resuspended (at a concentration of 300 xL3s per 50 μL) in sterile (autoclaved) lysogeny broth (LB; cf. [Bertani, 1951]; [Taki et al., 2021b]), supplemented with final concentrations of 100 IU/mL of penicillin, 100 μg/mL of streptomycin and 0.25 μg/mL of amphotericin B (Fungizone®, cat. No. 15240-062, Gibco, Thermo Fisher Scientific, Waltham, MA, USA); this supplemented LB was designated LB*.
The dose-response assay for H. contortus followed a well-established protocol ([Taki et al., 2021b]); it was employed to evaluate the potency of hit compounds against this nematode. Test compounds were assessed individually for an effect on the motility of xL3s (10-point, 2-fold serial dilution in LB*, 40 μM–[…]). […] A solution of LB* was used as a negative control. The test compounds and positive control compounds (monepantel and moxidectin) were arrayed in triplicate across individual flat-bottom 96-well microplates, with six wells on each plate containing the negative control. Added to each well were 300 xL3s of H. contortus in 50 μL of LB* to give a final volume of 100 μL. Plates were then placed in a CO2 incubator (10 % (v/v) CO2, 38 °C, >90 % humidity; Forma, model no. 311, Thermo Fisher Scientific, USA). […] Over a period of 15 min, disturbance of an infrared beam in individual wells was recorded as an ‘activity count’. Raw ‘activity counts’ for individual wells were normalised to the negative-controls. The compound concentrations were log10-transformed and fitted using a variable slope four-parameter equation, using the ordinary least squares fit model, employing Prism (v.9.1.0 GraphPad Software, San Diego, CA, USA). Larval development was established at 168 h of incubation with compound, as described previously ([Preston et al., 2015]). The phenotypes of larvae were examined using a microscope ([Preston et al., 2015]) and recorded.

[5] = tested on: C. elegans young adults; parameters: method as in Taki et al., 2021a; settings: previous HitFinder library screen, ref Taki et al., 2021a, cited from earlier work
[6] = target: T3, UBL-5 (Caenorhabditis elegans, UniProt P91302); test: Thermal proteome profiling (TPP); format: binding; settings: compound 50 μM, C. elegans lysate, 37-67 °C
T3 construct: from tissue; host or cells: whole-worm lysate of C. elegans N2 (young adults / L4s)
T3 sequence (P91302 whole entry): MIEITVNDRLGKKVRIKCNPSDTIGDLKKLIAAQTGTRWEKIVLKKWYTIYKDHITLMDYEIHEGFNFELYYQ

[7] = target: T4, B0361.6 (Caenorhabditis elegans, UniProt Q10950); test: Thermal proteome profiling (TPP); format: binding; settings: compound 50 μM, C. elegans lysate, 37-67 °C
T4 construct: from tissue; host or cells: whole-worm lysate of C. elegans N2 (young adults / L4s)
T4 sequence (Q10950 whole entry): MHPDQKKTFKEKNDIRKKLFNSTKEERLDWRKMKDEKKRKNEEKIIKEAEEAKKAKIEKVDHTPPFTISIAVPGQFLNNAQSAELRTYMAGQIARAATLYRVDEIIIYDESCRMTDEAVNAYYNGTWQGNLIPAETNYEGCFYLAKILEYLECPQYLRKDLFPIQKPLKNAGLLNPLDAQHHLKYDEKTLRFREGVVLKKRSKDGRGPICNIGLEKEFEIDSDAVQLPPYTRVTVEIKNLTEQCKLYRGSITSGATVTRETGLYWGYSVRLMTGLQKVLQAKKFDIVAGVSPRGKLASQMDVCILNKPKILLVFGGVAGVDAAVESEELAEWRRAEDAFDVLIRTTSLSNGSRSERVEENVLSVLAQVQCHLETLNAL

C(#Cc1ccc(-c2ccn[nH]2)cc1)c1ccccc1 [UMW-9729]
F-statistic ([1]; NPARC): 20.2
thermal stability of protein in the presence of compound [1]: stabilised
half-maximal mitotoxic concentration (MC50) [2]: > 40 µM
F-statistic ([3]; NPARC): 27.4
thermal stability of protein in the presence of compound [3]: stabilised
IC50 ([4]; Haemonchus contortus, 90 h, xL3s, 90 h incubation (table title), three independent assays in triplicate, read-out: Worm motility IC50 ± SD, H. contortus xL3s): 6.7 ± 0.4 µM
fold more active than moxidectin, H. contortus larvae ([4]; ratio of xL3 motility IC50 to moxidectin): ~3 fold
maximum motility inhibition, young adults of C. elegans [5]: 88.9%
IC50 ([5]; read-out: half-maximal inhibitory concentration (IC50), motility of young adults of C. elegans): 5.6 µM
F-statistic ([6]; NPARC): 34.8
thermal stability of protein in the presence of compound [6]: stabilised
F-statistic ([7]; NPARC): 24.2
thermal stability of protein in the presence of compound [7]: stabilised
